Data published in patent US12421249B2, “Inhibitors of APOL1 and methods of using same” (Vertex Pharmaceuticals Incorporated, priority 2020, dated 2025).

Molecular target: T1, APOL1 G1 (Homo sapiens, UniProt O14791, I384M/S342G)
T1 sequence (O14791 28-398 S342G/I384M): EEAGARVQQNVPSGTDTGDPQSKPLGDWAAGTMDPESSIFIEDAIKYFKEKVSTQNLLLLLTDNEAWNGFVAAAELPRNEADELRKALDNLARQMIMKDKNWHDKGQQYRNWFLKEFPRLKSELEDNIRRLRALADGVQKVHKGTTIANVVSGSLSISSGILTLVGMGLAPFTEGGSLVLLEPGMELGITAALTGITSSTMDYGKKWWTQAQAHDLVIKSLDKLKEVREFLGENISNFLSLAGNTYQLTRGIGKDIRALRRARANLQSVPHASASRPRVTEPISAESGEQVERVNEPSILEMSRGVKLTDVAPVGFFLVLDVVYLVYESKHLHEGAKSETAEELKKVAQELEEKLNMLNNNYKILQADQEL
Assay: MultiTox-Fluor Multiplex Cytotoxicity Assay in tet-inducible APOL1 G1 T-REx-HEK293 cells (clone G1 DC3.25)
Type: cell-based
Set-up: expressed in transfected cells; host or cells: T-REx HEK293, pAAVS1-Puro-APOL1 G1, clone G1 DC3.25
Conditions: Multi-Tox Assay; IP50 = IC50 for cell proliferation; APOL1 variant cell line not given
Procedure: The MultiTox-Fluor Multiplex Cytotoxicity Assay is a single-reagent-addition, homogeneous, fluorescence assay that measures the number of live and dead cells simultaneously in culture wells. The assay measures cell viability and cytotoxicity by detecting two distinct protease activities. The live-cell protease activity is restricted to intact viable cells and is measured using a fluorogenic, cell-permeant peptide glycyl-phenylalanylamino fluorocoumarin (GF-AFC) substrate. The substrate enters intact cells, where it is cleaved to generate a fluorescent signal proportional to the number of living cells. […] A second, cell-impermeant, fluorogenic peptide substrate (bis-AAF-R110 Substrate) is used to measure dead-cell protease that has been released from cells that have lost membrane integrity. A ratio of dead to live cells is used to normalize data.
Briefly, the tet-inducible transgenic APOL1 T-REx-HEK293 cell lines were incubated with 50 ng/mL tet to induce APOL1 in the presence of 3-(2-(4-fluorophenyl)-1H-indol-3-yl)-N-((3S,4R)-4-hydroxy-2-oxopyrrolidin-3-yl)propenamide at […], 0.0045, 0.0015, 0.0005 μM in duplicate for 24 hours in a humidified 37° C. incubator. The MultiTox reagent was added to each well and placed back in the incubator for an additional 30 minutes. The plate was read on the EnVision plate reader. A ratio of dead to live cells was used to normalize, and data was imported, analyzed and fit using Genedata Screener (Basel, Switzerland) software. Data was normalized using percent of control, no tet (100% viability), and 50 ng/mL tet treated (0% viability), and fit using Smart Fit. The reagents, methods, and complete protocol for the MultiTox assay are described below.
Human embryonic kidney (HEK293) cell lines containing a tet-inducible expression system (T-REx™; Invitrogen, Carlsbad, CA) and Adeno-associated virus site 1 pAAVS1-Puro-APOL1 G0 or pAAVS1-Puro-APOL1 G1 or pAAVS1-Puro-APOL1 G2 Clones G0 DC2.13, G1 DC3.25, and G2 DC4.44 were grown in a T-225 flask at ˜90% confluency in cell growth media (DMEM, 10% Tet-free FBS, 2 mM L-glutamine, 100 Units/mL penicillin-streptomycin, 5 μg/mL blasticidin S HCl, 1 μg/mL puromycin dihydrochloride). Cells were washed with DPBS and then trypsinized to dissociate from the flask. Media was used to quench the trypsin, cells were then pelleted at 200 g and resuspended in fresh cell assay media (DMEM, 2% Tet-free FBS, 2 mM L-glutamine, 100 Units/mL penicillin-streptomycin). Cells were counted and diluted to 1.17×10^6 cells/mL. 20 μL of cells (23,400/well) were dispensed to every well of a 384-well Poly-D-Lysine coated plate using the Multidrop dispenser. The plates were then incubated at room temperature for one hour.
Tetracycline is needed to induce APOL1 expression. 1 mg/mL tet stock in water was diluted to 250 ng/mL (5×) in cell assay media. 60 μL of cell assay media (no tet control) was dispensed in columns 1 and 24, and 60 μL of 5× tet was dispensed in 384-PP-round bottom plate in columns 2 to 23 with the Multidrop dispenser.
Assay ready plates from the Global Compound Archive were ordered using template 384_APOL1Cell_DR10n2_50 μM_v3. Compounds were dispensed at 200 nL in DMSO. The final top concentration was 10 μM with a 10 point 3-fold dilution in duplicate in the MultiTox assay.
20 μL were transferred from the 5× tet plate to the ARP and mixed, then 5 μL of 5× tet and the compounds were transferred to the cell plate and mixed using the Bravo. The cell plate was placed in the humidified 37° C. 5% CO2 incubator for 24 hours.
The MultiTox-Fluor Multiplex Cytotoxicity Assay was performed in accordance with the manufacturer's protocol. After cells were incubated with tet and compound for 24 hours, 25 μL of 1× MultiTox reagent was added to each well using the Multidrop dispenser; the plates were placed on a plate shaker (600 rpm) for 2 minutes, then centrifuged briefly and placed back in the 37° C. incubator for 30 minutes. […]

## [2H]C1([2H])O[C@@]2(C[C@@H](c3cn(C)nn3)N[C@@H](C)C2)c2sc(Cl)cc2[C@]1([2H])O [Compound 385, (2S,4S,4′S,6S)-2′-chloro-4′,5′,5′-trideuterio-2-methyl-6-(1-methyltriazol-4-yl)spiro[piperidine-4,7′-thieno[2,3-c]pyran]-4′-ol]
  IC50: < 50 nM
